Experimental data taken from US9556159B2, “Renin inhibitor” (MITSUBISHI TANABE PHARMA CORPORATION, priority 2012, dated 2017).
pIC50: −log10 of the molar value.

Target: T1, Recombinant human renin (Homo sapiens, UniProt P00797)
T1 sequence (P00797 67-406): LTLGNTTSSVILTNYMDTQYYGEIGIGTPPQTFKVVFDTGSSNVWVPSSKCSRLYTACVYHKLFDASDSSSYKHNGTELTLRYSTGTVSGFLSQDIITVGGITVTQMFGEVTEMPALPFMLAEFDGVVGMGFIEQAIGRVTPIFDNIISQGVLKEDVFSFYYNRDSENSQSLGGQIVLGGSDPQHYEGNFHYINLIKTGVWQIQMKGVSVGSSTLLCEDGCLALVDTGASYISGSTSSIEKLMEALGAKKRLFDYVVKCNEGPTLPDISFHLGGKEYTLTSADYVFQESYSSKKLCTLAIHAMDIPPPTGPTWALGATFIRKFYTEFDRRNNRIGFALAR
Test: Inhibitory activity against human renin (fluorogenic peptide substrate)
Type: biochemical
Details: 50% inhibitory concentration (IC50) against human renin, 37° C. for 1 hour

| Compound | pIC50 |
| --- | --- |
| COC(=O)NCCCc1cc(C(C)N(C(=O)[C@H]2CNCCO2)C2CC2)sc1C(C)CO (stereo partly drawn) [Example 420] | 8.57 |
| COC(=O)NCCCc1nc([C@@H](C)N(C(=O)[C@H]2CNCCO2)C2CC2)sc1-c1cn[nH]c1 [Example 421] | 8.66 |
| COC(=O)NCCCc1cc(C(C)N(C(=O)[C@H]2CNCCO2)C2CC2)sc1-c1cccnc1N (stereo partly drawn) [Example 422] | 8.77 |
| COC(=O)NCCCc1cc([C@@H](C)N(C(=O)[C@H]2CNCCO2)C2CC2)sc1C#CC(C)(C)O [Example 423] | 9.00 |
| COC(=O)NCCCc1nc([C@@H](C)N(C(=O)[C@H]2CNCCO2)C2CC2)cnc1O[C@H]1CCOC1 [Example 424] | 8.30 |
| COC(=O)NCCCc1cc(C(C)N(C(=O)[C@H]2CNCCO2)C2CC2)sc1-c1ccc(N)nc1 (stereo partly drawn) [Example 425] | 8.06 |
| COC(=O)NCCCc1cc([C@H](C)N(C(=O)[C@H]2CNCCO2)C2CC2)sc1-c1ccnn1C [Example 427] | 8.46 |
| COC(=O)NCCCc1sc([C@@H](C)N(C(=O)[C@H]2CNCCO2)C2CC2)cc1-c1ccc(F)cc1 [Example 428] | 8.09 |
| COC(=O)NCCCc1sc(C(C)N(C(=O)[C@H]2CNCCO2)C2CC2)cc1-c1ccnn1C (stereo partly drawn) [Example 429] | 8.70 |
| COC(=O)NCCCc1sc(C(C)N(C(=O)[C@H]2CNCCO2)C2CC2)cc1-c1cccnc1 (stereo partly drawn) [Example 430] | 8.62 |
| COC(=O)NCCCc1sc([C@H](C)N(C(=O)[C@H]2CNCCO2)C2CC2)cc1-c1cnc(N)nc1 [Example 431] | 8.42 |
| COC(=O)NCCCc1sc([C@@H](C)N(C(=O)[C@H]2CNCCO2)C2CC2)cc1-c1cnc(N)nc1 [Example 432] | 8.48 |
| COC(=O)NCCCc1nc([C@@H](C)N(C(=O)[C@H]2CNCCO2)C2CC2)cnc1O[C@@H]1CCOC1 [Example 433] | 8.28 |
| COC(=O)NCCCc1sc([C@@H](C)N(C(=O)[C@H]2CNCCO2)C2CC2)cc1-c1ccccc1C(=O)OC [Example 434] | 8.70 |
| COC(=O)NCCCc1sc([C@@H](C)N(C(=O)[C@H]2CNCCO2)C2CC2)cc1-c1ccccc1CO [Example 435] | 8.89 |
| COCC(C)Oc1ncc(C(C)N(C(=O)C2CNCCO2)C2CC2)nc1CCCNC(=O)OC (stereo not drawn) [Example 436] | 8.66 |
| COC(=O)NCCCc1sc([C@H](C)N(C(=O)[C@H]2CNCCO2)C2CC2)cc1Br [Example 437] | 8.57 |
| COC(=O)NCCCc1sc([C@@H](C)N(C(=O)[C@H]2CNCCO2)C2CC2)cc1Br [Example 438] | 8.62 |
| COC(=O)NCCCc1nc([C@@H](C)N(C(=O)[C@H]2CNCCO2)C2CC2)sc1C(=O)Nc1ccccc1OC [Example 439] | 8.10 |
| COC(=O)NCCCc1cc(C(C)N(C(=O)[C@H]2CNCCO2)C2CC2)cnc1O[C@H]1CCOC1 (stereo partly drawn) [Example 440] | 8.72 |
| COC(=O)NCCCc1cc([C@@H](C)N(C(=O)[C@H]2CNCCO2)C2CC2)sc1C(C)=O [Example 441] | 9.10 |
| COC(=O)NCCCc1nc([C@@H](C)N(C(=O)[C@H]2CNCCO2)C2CC2)cnc1N(C)C [Example 442] | 8.02 |
| COC(=O)NCCCc1cc([C@@H](C)N(C(=O)[C@H]2CNCCO2)C2CC2)cnc1O[C@H]1CCOC1 [Example 443] | 8.70 |
| COCCNc1ncc([C@@H](C)N(C(=O)[C@H]2CNCCO2)C2CC2)nc1CCCNC(=O)OC [Example 444] | 8.38 |
